In general, EC50 refers to the concentration that produces a half-maximal response. The IC50 is the concentration that inhibits the measured activity by half. A lower IC50 goes with greater potency in that assay.

The source made the active and inactive calls.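 How the source made its calls: active means compounds giving half or more protection of infected cells from virus-caused growth loss, again on retest; inactive means the rest.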

The experiment deals with CEM cells HIV-1 protection, formazan growth assay. The experiment is described as follows: NCI AIDS Antiviral Assay. The conditions noted are these: for IC50: measured here: growth of uninfected CEM cells. Here is the method:
The ability of compounds to protect human CEM cells from HIV-1 infection is measured as a screen for new compounds capable of inhibiting the HIV virus. Five concentrations of drug were tested on uninfected and infected cells and cell growth was measured using a soluble formazan assay. […] Compounds that provided at least 50% protection were retested. Compounds that provided at least 50% protection on retest were listed as moderately active. Compounds that reproducibly provided 100% protection were listed as confirmed active. […] Note that the inability to provide protection could be due to toxicity.

As for `COC1/C=C/OC2(C)Oc3c(C)c(O)c4c(O)c(c(/C=N/N5CC(C)(C)N(Cc6ccccc6)CC5(C)C)c(O)c4c3C2=O)NC(=O)C(C)=C/C=C/C(C)C(O)C(C)C(O)C(C)C(OC(C)=O)C1C` (configuration not stated), the EC50 is greater than 27.5 µM and the IC50 was 3.31 µM.
On the same counts, the results for `O=C1/C(=C/c2cccc(Cl)c2)Cc2ccccc21` are greater than 28.2 µM and greater than 28.2 µM.
As to `CC(=O)NNC(=S)/N=C\C(C(=O)c1ccccc1)=C(/O)c1ccccc1`, the EC50 was greater than 200 µM and the concentration for half-maximal inhibition (IC50) is greater than 200 µM.
Regarding `N=c1c2c(-c3ccccc3)c[nH]c2ncn1N`, the EC50 was greater than 200 µM and the IC50 was greater than 200 µM.
Consider `COc1cc2c(cc1O)C1(C(=O)c3ccc4c(c3[C@H]1O)OCO4)N(C)CC2` (some centres not stated), for which the result was inactive.
For `CCOC(=O)CSc1nc(-c2ccc(OC)cc2)c(C#N)c(=O)[nH]1`, the EC50 was greater than 200 µM and the IC50 was 97.7 µM.
In the case of `COC(=O)C(C)(C)C(=O)C(C)(C)P(C)(=O)OC` (configuration not stated), the EC50 is greater than 200 µM and the IC50 is greater than 200 µM.
Consider `COc1cc(N=Nc2ccccc2C(=O)O)cc(/C=N/NC(=O)c2cccnc2)c1O`, for which the EC50 was greater than 12.3 µM and the IC50 is greater than 12.3 µM.
As for `COc1ccc(/C=N/NC(=O)c2sc(=S)n(-c3ccccc3)c2N)cc1`, the EC50 is greater than 9.77 µM and the IC50 is greater than 9.77 µM.
On to `COc1cc2c(c(OC)c1OC)C1CCCCC1SCC2O` (configuration not stated), for which the EC50 is greater than 398 µM and the IC50 stood at 77.6 µM.
In the same order, the values of `COC(=O)/C=C(C)/C=C/c1cc(C(C)=O)c(C)o1` are greater than 145 µM and 102 µM.
In the same order, the values of `COC(=O)OC[C@H]1O[C@@H](n2cc(C)c(=O)[nH]c2=O)CC1OC(=O)OC` (some centres not stated) are greater than 200 µM and greater than 200 µM.
With `O=C1C(F)=CC(COC(c2ccccc2)(c2ccccc2)c2ccccc2)OC1n1cc(F)c(=O)[nH]c1=O` (configuration not stated), the EC50 was greater than 2 µM and the IC50 stood at 0.479 µM.
In the same order, the values of `CO/C(=N\N=C\c1ccc(Cl)cc1)c1ccncc1` are greater than 200 µM and greater than 200 µM.
On the same counts, the results for `Nc1[nH][nH]c(=O)c1N=O` are greater than 200 µM and greater than 200 µM.
As to `O=C(/C=C/c1cc(Cl)cc(Cl)c1O)c1cccc(O)c1`, the outcome was inactive.
`O=S(=O)(/N=S(/Nc1ccccc1)C(Cl)Cl)c1ccccc1` (configuration not stated): the EC50 was greater than 200 µM and the IC50 is greater than 200 µM.
Turning to `NCCCc1c(-c2ccccc2)nc(N)[nH]c1=O`, the EC50 is greater than 200 µM and the IC50 is greater than 200 µM.
As to `C=C(CCC/C(C)=C/C=C/[C@]1(C)CCCc2ccoc21)CC(=O)O`, the EC50 is 16.2 µM and the IC50 is greater than 200 µM.
On to `COc1cnc([C@H]2CCC3[C@@H]4CC=C5C[C@@H](OC(C)=O)CC[C@]5(C)C4CC[C@@]32C)s1` (some centres not stated), for which the EC50 is greater than 21.9 µM and the IC50 is greater than 21.9 µM.
`COC(=O)c1ccc(NCc2c(O)ccc(O)c2Br)cc1Cl`: the EC50 is greater than 14.8 µM and the IC50 was found to be 6.46 µM.
`Cc1cccc(NC(=O)C(=O)Cc2nc3ccccc3[nH]c2=O)c1C`: the outcome was inactive.
`O=C(O)c1ccc(CSc2ccccc2)c([N+](=O)[O-])c1`: the EC50 was greater than 631 µM and the IC50 is 245 µM.
In the same order, the values of `COC1=C2CC(C)CC(OC)C(O)C(C)/C=C(\C)C(OC(N)=O)C(OC)/C=C\C=C(/C)C(=O)NC(=C(/C=N/N3CCCCC3)C1=O)C2=O` (configuration not stated) are greater than 200 µM and 3.89 µM.
For `CCC(CO)Nc1nc2c(c(=O)n(C)c(=O)n2C)n1CCO` (configuration not stated), the result was inactive.
With `CN(C)c1c([O-])c(=[N+](C)C)c1=O`, the result was inactive.
`COc1ccc(-c2oc3ccc(C)cc3c(=O)c2O)cc1`: the EC50 was greater than 52.5 µM and the IC50 is greater than 52.5 µM.
On to `COc1ccccc1NC(=O)CC(=O)N/N=C/c1ccc(N(CCC#N)S(=O)(=O)c2ccccc2)cc1`, for which the EC50 is greater than 182 µM and the IC50 was greater than 182 µM.
Regarding `CNC(=O)NCCc1c[nH]c2ccccc12`, the EC50 is greater than 200 µM and the IC50 is greater than 200 µM.
For `O=C(c1ccccc1)N1C(=S)N=C(Nc2ccccc2)C1=Nc1ccccc1`, the EC50 was greater than 200 µM and the IC50 is greater than 200 µM.
As to `NCCCNCCSSCc1ccccc1CSSCCNCCCN`, the result was inactive.
For `Cc1ccc(/C=C/C(=O)Oc2ccc(/C=C3\CCC/C(=C\c4ccc(OC(=O)/C=C/c5ccc(C)cc5)cc4)C3=O)cc2)cc1`, the EC50 was greater than 100 µM and the IC50 is greater than 100 µM.
Consider `COc1cc(/C=C(\C)c2ccc3c(c2)OCO3)cc(OC)c1OC`, for which the EC50 was greater than 41.7 µM and the IC50 is greater than 41.7 µM.
As for `CC(=O)N=C1N(/C=C2\C(=O)Oc3ccccc3C2=O)C(=O)/C(=C/c2ccco2)N1C`, the EC50 was greater than 200 µM and the IC50 was 69.2 µM.
`COc1cc2c(cc1OC)C(=O)N1CCCC1C(=O)S2` (configuration not stated): the outcome was inactive.
`Cc1ccc2oc(=O)c(C#N)c(/C=C/c3cccc(Br)c3)c2c1`: the EC50 is greater than 100 µM and the IC50 was greater than 100 µM.
With `CC(C)CNC(=S)N/N=C\c1ccncc1`, the EC50 was greater than 200 µM and the IC50 came to 105 µM.
Consider `CC(C)C1OC(=O)/C=C/C=C/C=C/C=C/C=C/CC(O)CC(O)CC(O)CC(O)CC(O)CC(O)CC(O)CC(O)/C=C/C1C` (configuration not stated), for which the EC50 is greater than 200 µM and the IC50 is greater than 200 µM.
For `COC(=O)/C=C/c1cc(=O)n2c(nc3ccccc32)s1`, the EC50 was greater than 200 µM and the IC50 was greater than 200 µM.
As to `Cc1ccc([N+](=O)[O-])cc1NC(=O)N1CCCCC1C` (configuration not stated), the EC50 is greater than 200 µM and the IC50 was greater than 100 µM.
On the same counts, the results for `Cc1cc(N=Nc2ccc([N+](=O)[O-])cc2)c(NCC(O)C(O)C(O)CO)cc1C` (configuration not stated) are greater than 200 µM and 34.7 µM.
For `C=CCCC(=O)C(=[N+]=[N-])C(=O)CCC(=O)c1ccccc1`, the EC50 was greater than 200 µM and the 50% inhibitory concentration (IC50) is 20 µM.
With `O=C(/C=C/c1ccc(Cl)c(Cl)c1)c1ccc(F)cc1`, the EC50 was greater than 1.86 µM and the concentration for half-maximal inhibition (IC50) is greater than 1.86 µM.
On to `C[N+]12CCCCC1C(CN1C(=O)Cc3c4ccccc4c(c4ccccc34)CC1=O)CCC2` (configuration not stated), for which the EC50 is greater than 200 µM and the IC50 was greater than 200 µM.
For `C=C1CN(Cc2ccccc2)[C@@H]2CCCCC[C@H](C#N)[C@H]12`, the EC50 was greater than 200 µM and the IC50 amounted to 123 µM.
Turning to `Nc1nc(Cl)cc(NC2(CO)CCC2)n1`, the EC50 is greater than 200 µM and the IC50 is greater than 200 µM.
Take `C/C(=N\O)[C@H]1CC[C@H]2[C@@H]3CCC4=C/C(=N/O)CC[C@]4(C)[C@H]3C(=O)C[C@]12C`: the EC50 is greater than 200 µM and the IC50 is 39.8 µM.
On the same counts, the results for `O=C1C2=Cc3ccccc3OC2(O)Oc2ccccc21` (configuration not stated) are greater than 200 µM and 23.4 µM.
With `O=C(CCC(=O)c1ccsc1)c1ccsc1`, the EC50 is greater than 200 µM and the IC50 was greater than 200 µM.
With `Cc1sc(/N=C/C2=C(O)CC(C)(C)CC2=O)nc1-c1ccccc1`, the EC50 is greater than 200 µM and the IC50 came out at 64.6 µM.
On the same counts, the results for `CC(=O)Oc1cccc2c1ccc1nonc12` are greater than 174 µM and 28.2 µM.
In the same order, the values of `O=[N+]([O-])c1ccccc1S(=O)c1ccccc1[N+](=O)[O-]` are greater than 204 µM and 3.47 µM.

For the origin of these results see PubChem BioAssay AID179 (DTP/NCI, 2004).
